Experiment [1] relates to Rhizoctonia solani. Briefly: Antifungal activity against Rhizoctonia solani AG-4 RST-04 assessed as mycelial growth inhibition at 80 to 120 ug/ml after 2 days. In kind it is functional, organism-based.
Experiment [2] deals with Rhizoctonia solani. Kind of experiment: Antifungal activity against Rhizoctonia solani AG-4 RST-04 assessed as mycelial growth inhibition after 2 days. In kind it is functional. The settings on record: AG-4 RST-04, 48 h.

Each structure is given as a SMILES string. Values after ≈ are worked out from the molar mass of the structure shown. Active and inactive are the calls of the source. No cut-off for these calls is given here.

Consider `CCCCC[C@@H](O)[C@H]1C(=O)O[C@H](C)[C@@H](O)/C=C/C=C/C=C/C=C/C=C(\C)[C@@H](O)[C@H](O)[C@H](O)C[C@H](O)C[C@H](O)C[C@H](O)C[C@H](O)C[C@@H]1O` [PENTAMYCIN], for which the “growth inhibition (GI)” value in the experiment on Rhizoctonia solani [1] is “Active”. For the same compound, the minimum inhibitory concentration (MIC) in the experiment on Rhizoctonia solani [2] came to 72 µg/mL (≈ 107 µM).

The values above are taken from ChEMBL document CHEMBL3044539, “Fungichromin: a substance from Streptomyces padanus with inhibitory effects on Rhizoctonia solani” (2003).
